From patent US20220073536A1 (Rigel Pharmaceuticals, Inc., priority 2003, published 2022)
Counter-ions that a name gives are not always drawn.

Columns and labels:
[1] = system: cultured human mast cells (CHMC); experiment: CHMC low cell density IgE activation: tryptase assay; assay type: cell-based; settings: low cell density CHMC, IgE activation
How it was run: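 Low-density CHMC, 1000-1500 cells/well in MT; 1 hr 37 °C; anti-IgE challenge 30 min 37 °C; supernatant tryptase via fluorogenic substrate, 30 min RT.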

[2] = system: cultured human mast cells (CHMC); experiment: CHMC low cell density ionomycin activation: tryptase assay; assay type: cell-based; settings: low cell density CHMC, read-out: LD Tryptase, CHMC, Iono, 3 pt
[3] = tryptase release, 3 point, read-out: LD Tryptase, CHMC, IgE, 3 pt
[4] = tryptase release, 8 point, read-out: LD Tryptase, CHMC, IgE, 8 pt
[5] = Homo sapiens, Mast cell, tryptase release, 3 point, read-out: LD Tryptase, CHMC, IgE, 3 pt
[6] = Homo sapiens, Mast cell, tryptase release, 3 point
[7] = Homo sapiens, Mast cell, tryptase, 3 pt, read-out: LD Tryptase, CHMC, IgE, 3 pt
[8] = Homo sapiens, Mast cell, tryptase, 8 pt, read-out: LD Tryptase, CHMC, IgE, 8 pt
[9] = Homo sapiens, Mast cell, tryptase, 3 pt
[10] = Homo sapiens, Mast cell, tryptase release, 3 pt, read-out: LD Tryptase, CHMC, IgE, 3 pt
[11] = Homo sapiens, Mast cell, tryptase release, 8 pt, read-out: LD Tryptase, CHMC, IgE, 8 pt
[12] = Homo sapiens, Mast cell, tryptase release, 3 pt

For COC(=O)Cn1ccc2cc(Nc3ncc(F)c(Nc4ccc5c(c4)NC(=O)C(C)(C)O5)n3)ccc21 [Compound 643, N4-(2,2-Dimethyl-3-oxo-4H-benz[1,4]oxazin-6-yl)-5-fluoro-N2-[1-(methoxycarbonylmethylene)indol-5-yl]-2,4-pyrimidinediamine], the IC50 [1, 3] was < 10 µM, the IC50 [1, 4] was < 10 µM and the IC50 ([2]; tryptase release, 3 point) was > 10 µM.
In the case of CNC(=O)COc1ccc(Nc2nc(Nc3ccc4c(ccn4CC(=O)OC)c3)ncc2F)cc1Cl [Compound 644, N4-[3-Chloro-4-(N-methylamino)carbonylmethyleneoxyphenyl]-5-fluoro-N2-[1-(methoxycarbonylmethylene)indol-5-yl]-2,4-pyrimidinediamine], the IC50 [1, 3] is reported as < 10 µM, the IC50 [1, 4] is reported as < 10 µM and the IC50 ([2]; tryptase release, 3 point) is reported as > 10 µM.
In the case of COC(=O)Cn1ccc2cc(Nc3ncc(F)c(Nc4ccc(OC)c(Cl)c4)n3)ccc21 [Compound 646, N4-(3-Chloro-4-methoxyphenyl)-5-fluoro-N2-[1-(methoxycarbonylmethylene)indol-5-yl]-2,4-pyrimidinediamine], the IC50 [1, 3] is reported as < 10 µM, the IC50 [1, 4] is reported as < 10 µM and the IC50 ([2]; tryptase release, 3 point) is reported as > 10 µM.
COC(=O)Cn1ccc2cc(Nc3ncc(F)c(Nc4ccc5c(c4)OCCO5)n3)ccc21 [Compound 647, N4-(3,4-Ethylenedioxyphenyl)-5-fluoro-N2-[1-(methoxycarbonylmethylene)indol-5-yl]-2,4-pyrimidinediamine] was tested, and the IC50 [1, 3] was < 10 µM, the IC50 [1, 4] was < 10 µM and the IC50 ([2]; tryptase release, 3 point) was > 10 µM.
In the case of CNC(=O)Cn1ccc2ccc(Nc3ncc(F)c(Nc4ccc5c(c4)OCCO5)n3)cc21 [Compound 649, N4-(3,4-Ethylenedioxyphenyl)-5-fluoro-N2-[1-(N-methylamino)carbonylmethyleneindol-6-yl]-2,4-pyrimidinediamine], the IC50 [1, 3] is reported as < 10 µM, the IC50 [1, 4] is reported as < 10 µM and the IC50 ([2]; tryptase release, 3 point) is reported as > 10 µM.
With COc1ccc(N(C)c2nc(Cl)ncc2F)cn1 [Compound 657] the IC50 [1, 5] was > 10 µM and the IC50 [2, 6] was > 10 µM.
For CN(c1ccc(Cl)c(C(F)(F)F)c1)c1nc(Cl)ncc1F [Compound 658], the IC50 [1, 5] was > 10 µM and the IC50 [2, 6] was > 10 µM.
COc1cc(N(C)c2nc(Cl)ncc2F)ccc1Cl [Compound 659] was tested, and the IC50 [1, 5] was > 10 µM and the IC50 [2, 6] was > 10 µM.
COc1ccc(N(C)c2nc(Cl)ncc2F)cc1Cl [Compound 660] was tested, and the IC50 [1, 5] was > 10 µM and the IC50 [2, 6] was > 10 µM.
CNC(=O)Cn1ccc2ccc(Nc3ncc(F)c(Nc4ccc(OC(F)(F)F)c(Cl)c4)n3)cc21 [Compound 662, N4-(3-Chloro-4-trifluoromethoxyphenyl)-5-fluoro-N2-[1-(N-methylamino)carbonylmethyleneindol-6-yl]-2,4-pyrimidinediamine] was tested, and the IC50 [1, 3] was < 10 µM, the IC50 [1, 4] was < 10 µM and the IC50 ([2]; tryptase release, 3 point) was > 10 µM.
With CNC(=O)Cn1ccc2ccc(Nc3ncc(F)c(Nc4ccc(Cl)c(OC)c4)n3)cc21 [Compound 663, N4-(4-Chloro-3-methoxyphenyl)-5-fluoro-N2-[1-(N-methylamino)carbonylmethyleneindol-6-yl]-2,4-pyrimidinediamine] the IC50 [1, 3] was < 10 µM and the IC50 ([2]; tryptase release, 3 point) was > 10 µM.
For CNC(=O)Cn1ccc2ccc(Nc3ncc(F)c(Nc4ccc(OC)c(Cl)c4)n3)cc21 [Compound 664, N4-(3-Chloro-4-methoxyphenyl)-5-fluoro-N2-[1-(N-methylamino)carbonylmethyleneindol-6-yl]-2,4-pyrimidinediamine], the IC50 [1, 3] was < 10 µM, the IC50 [1, 4] was < 10 µM and the IC50 ([2]; tryptase release, 3 point) was > 10 µM.
For CNC(=O)Cn1ccc2ccc(Nc3ncc(F)c(Nc4ccc(C(=O)NC)c(Cl)c4)n3)cc21 [Compound 665, N4-[3-Chloro-4-(N-methylamino)carbonylphenyl]-5-fluoro-N2-[1-(N-methylamino)carbonylmethyleneindol-6-yl]-2,4-pyrimidinediamine], the IC50 [1, 3] was < 10 µM and the IC50 ([2]; tryptase release, 3 point) was > 10 µM.
In the case of COc1ccc(Nc2nc(Cl)ncc2F)cc1Cl [Compound 666], the IC50 [1, 5] is reported as > 10 µM and the IC50 [2, 6] is reported as > 10 µM.
With CCn1ncc2cc(Nc3ncc(F)c(Nc4ccc(OC)c(Cl)c4)n3)ccc21 [Compound 694] the IC50 [1, 7] was < 10 µM, the IC50 [1, 8] was < 10 µM and the IC50 [2, 9] was > 10 µM.
With CCn1ncc2cc(Nc3ncc(F)c(Nc4ccc(Cl)c(Cl)c4)n3)ccc21 [Compound 695, N4-(3,4-Dichlorophenyl)-N2-(1-ethylindazol-5-yl)-5-fluoro-2,4-pyrimidinediamine] the IC50 [1, 7] was > 10 µM and the IC50 [2, 9] was > 10 µM.
CCn1ncc2cc(Nc3ncc(F)c(Nc4ccc5c(c4)NC(=O)C(C)(C)O5)n3)ccc21 [Compound 696, N4-(2,2-Dimethyl-3-oxo-4H-benz[1,4]oxazin-6-yl)-N2-(1-ethylindazol-5-yl)-5-fluoro-2,4-pyrimidinediamine] was tested, and the IC50 [1, 7] was < 10 µM, the IC50 [1, 8] was < 10 µM and the IC50 [2, 9] was < 10 µM.
In the case of CCn1ncc2cc(Nc3ncc(F)c(Nc4ccc(F)c(OC)c4)n3)ccc21 [Compound 697, N2-(1-Ethylindazol-5-yl)-5-fluoro-N4-(4-fluoro-3-methoxyphenyl)-2,4-pyrimidinediamine], the IC50 [1, 7] is reported as < 10 µM, the IC50 [1, 8] is reported as < 10 µM and the IC50 [2, 9] is reported as > 10 µM.
CCn1ncc2ccc(Nc3ncc(F)c(Nc4ccc(OC)c(Cl)c4)n3)cc21 [Compound 698, N4-(3-Chloro-4-methoxyphenyl)-N2-(1-ethylindazol-6-yl)-5-fluoro-2,4-pyrimidinediamine] was tested, and the IC50 [1, 7] was < 10 µM, the IC50 [1, 8] was < 10 µM and the IC50 [2, 9] was > 10 µM.
In the case of CCn1ncc2ccc(Nc3ncc(F)c(Nc4ccc(Cl)c(Cl)c4)n3)cc21 [Compound 699, N4-(3,4-Dichlorophenyl)-N2-(1-ethylindazol-6-yl)-5-fluoro-2,4-pyrimidinediamine], the IC50 [1, 7] is reported as < 10 µM and the IC50 [2, 9] is reported as < 10 µM.
In the case of CCn1ncc2ccc(Nc3ncc(F)c(Nc4ccc5c(c4)NC(=O)C(C)(C)O5)n3)cc21 [Compound 700, N4-(2,2-Dimethyl-3-oxo-4H-benz[1,4]oxazin-6-yl)-N2-(1-ethylindazol-6-yl)-5-fluoro-2,4-pyrimidinediamine], the IC50 [1, 7] is reported as < 10 µM, the IC50 [1, 8] is reported as < 10 µM and the IC50 [2, 9] is reported as < 10 µM.
CCn1ncc2ccc(Nc3ncc(F)c(Nc4ccc(F)c(OC)c4)n3)cc21 [Compound 701, N2-(1-Ethylindazol-6-yl)-5-fluoro-N4-(4-fluoro-3-methoxyphenyl)-2,4-pyrimidinediamine] was tested, and the IC50 [1, 7] was < 10 µM and the IC50 [2, 9] was < 10 µM.
With CCCn1ncc2ccc(Nc3ncc(F)c(Nc4ccc(OC)c(Cl)c4)n3)cc21 [Compound 706, N4-(3-Chloro-4-methoxyphenyl)-5-fluoro-N2-(1-n-propylindazol-6-yl)-2,4-pyrimidinediamine] the IC50 [1, 8] was < 10 µM and the IC50 [2, 9] was < 10 µM.
In the case of CCn1cc2ccc(Nc3ncc(F)c(Nc4ccc5c(c4)NC(=O)C(C)(C)O5)n3)cc2n1 [Compound 761, N4-(2,2-Dimethyl-3-oxo-4H-benz[1,4]oxazin-6-yl)-N2-(2-ethylindazol-6-yl)-5-fluoro-2,4-pyrimidinediamine], the IC50 [1, 7] is reported as < 10 µM, the IC50 [1, 8] is reported as < 10 µM and the IC50 [2, 9] is reported as > 10 µM.
For Cn1ncc2ccc(Nc3ncc(F)c(Nc4ccc5c(c4)NC(=O)C(C)(C)O5)n3)cc21 [Compound 766, N4-(2,2-Dimethyl-3-oxo-4H-benz[1,4]oxazin-6-yl)-5-fluoro-N2-(1-methylindazol-6-yl)-2,4-pyrimidinediamine DL-Camphor-1-sulfonic Acid Salt], the IC50 ([1]; tryptase, 3 pt, read-out: LD Tryptase, CHMC, IgE, 3 pt) was < 10 µM, the IC50 ([1]; tryptase, 8 pt, read-out: LD Tryptase, CHMC, IgE, 8 pt) was < 10 µM and the IC50 ([2]; tryptase, 3 pt) was > 10 µM.
With Cn1ncc2ccc(Nc3ncc(F)c(Nc4ccc5c(c4)NC(=O)C(C)(C)O5)n3)cc21 [Compound 769, N4-(2,2-Dimethyl-3-oxo-4H-benz[1,4]oxazin-6-yl)-5-fluoro-N2-(1-methylindazol-6-yl)-2,4-pyrimidinediamine Benzenesulfonic Acid Salt] the IC50 [1, 10] was < 10 µM, the IC50 [1, 11] was < 10 µM and the IC50 [2, 12] was > 10 µM.
COCCn1ncc2cc(Nc3ncc(F)c(Nc4ccc(Cl)c(Cl)c4)n3)ccc21 [Compound 771, N4-(3,4-Dichlorophenyl)-5-fluoro-N2-[1-(2-methoxyethyl)indazol-5-yl]-2,4-pyrimidinediamine] was tested, and the IC50 [1, 10] was < 10 µM, the IC50 [1, 11] was < 10 µM and the IC50 [2, 12] was > 10 µM.
COCCn1ncc2cc(Nc3ncc(F)c(Nc4ccc(OC)c(Cl)c4)n3)ccc21 [Compound 772, N4-(3-Chloro-4-methoxyphenyl)-5-fluoro-N2-[1-(2-methoxyethyl)indazol-5-yl]-2,4-pyrimidinediamine] was tested, and the IC50 [1, 10] was < 10 µM, the IC50 [1, 11] was < 10 µM and the IC50 [2, 12] was > 10 µM.
COCCn1ncc2cc(Nc3ncc(F)c(Nc4ccc5c(c4)NC(=O)C(C)(C)O5)n3)ccc21 [Compound 773, N4-(2,2-Dimethyl-3-oxo-4H-benz[1,4]oxazin-6-yl)-5-fluoro-N2-[1-(2-methoxyethyl)indazol-5-yl]-2,4-pyrimidinediamine] was tested, and the IC50 [1, 10] was < 10 µM, the IC50 [1, 11] was < 10 µM and the IC50 [2, 12] was > 10 µM.
For COCCn1ncc2cc(Nc3ncc(F)c(Nc4ccc(F)c(OC)c4)n3)ccc21 [Compound 774, 5-Fluoro-N4-(4-fluoro-3-methoxyphenyl)-N2-[1-(2-methoxyethyl)indazol-5-yl]-2,4-pyrimidinediamine], the IC50 [1, 10] was < 10 µM, the IC50 [1, 11] was < 10 µM and the IC50 [2, 12] was > 10 µM.
